Assay results taken from PMC9841576, “Characterisation of C101248: A novel selective THIK-1 channel inhibitor for the modulation of microglial NLRP3-inflammasome” (Neuropharmacology, 2023).

Experiments:
GSK3β (h) = GSK3β (h) (Homo sapiens, UniProt P49841); assay: Kinase selectivity; assay type: biochemical
Text: (§1) Supplement mmc1.docx, table 1 | column: IC50 (μM)

ROCK-2 (h) = ROCK-2 (h) (Homo sapiens, UniProt O75116); assay: Kinase selectivity; assay type: biochemical
Text: as §1

PKA (h) = PKA (h) (Homo sapiens, UniProt P17612); assay: Kinase selectivity; assay type: biochemical
Text: as §1

Syk (h) = Syk (h) (Homo sapiens, UniProt P43405); assay: Kinase selectivity; assay type: biochemical
Text: as §1

p70S6K (h) = p70S6K (h) (Homo sapiens, UniProt P23443); assay: Kinase selectivity; assay type: biochemical
Text: as §1

Lck (h) = Lck (h) (Homo sapiens, UniProt P06239); assay: Kinase selectivity; assay type: biochemical
Text: as §1

ROCK-1 (h) = ROCK-1 (h) (Homo sapiens, UniProt Q13464); assay: Kinase selectivity; assay type: biochemical
Text: as §1

THIK-1 = biological target: T1, THIK-1 (Homo sapiens, UniProt Q9HB14); assay: Whole-cell manual patch clamp of HEK-hTHIK-1 cells with rapid perfusion exchanger; assay type: cell-based; conditions: current at 50 mV
T1 construct: expressed in transfected cells
T1 sequence (Q9HB14 1-408): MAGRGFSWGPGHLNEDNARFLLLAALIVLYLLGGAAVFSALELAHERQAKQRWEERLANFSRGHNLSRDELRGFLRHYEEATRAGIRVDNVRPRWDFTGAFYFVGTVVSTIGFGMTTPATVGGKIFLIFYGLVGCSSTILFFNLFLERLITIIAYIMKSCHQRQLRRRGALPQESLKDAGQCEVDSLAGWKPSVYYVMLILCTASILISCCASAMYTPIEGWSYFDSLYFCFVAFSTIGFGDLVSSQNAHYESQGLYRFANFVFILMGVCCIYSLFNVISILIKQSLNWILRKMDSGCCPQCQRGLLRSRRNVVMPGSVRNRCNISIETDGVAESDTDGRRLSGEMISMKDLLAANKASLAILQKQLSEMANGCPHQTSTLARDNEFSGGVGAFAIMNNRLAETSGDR
Experimental: Cells were plated onto uncoated, sterile glass coverslips at a density of 1 × 10^6 cells/ml in a droplet of approximately 200 μl and incubated at 37 °C/5% CO2 before use at least 24 h later. Coverslips were transferred to the microscope stage chamber and cells visualised under IR-DIC illumination. The chamber was gravity perfused with a solution containing (in mM): 140 NaCl, 2.5 KCl, 10 HEPES, 1 NaH2PO4.H20, 2 CaCl2, 1 MgCl2, 10 glucose, with pH adjusted to 7.4 using NaOH and osmolarity adjusted to 320 mOsM using sucrose. The chamber was fed from a rapid perfusion exchanger, which continuously perfused square, multi-barrelled glass tubes, using laminar flow. Cells were patched using micropipettes filled with a solution containing (in mM): 125 KCl, 4 NaCl, 1 CaCl2, 10 HEPES, 10 EGTA, 4 MgATP, 2 Na2ATP, 2 MgCl2, 0.5 Na2GTP, pH adjusted to 7.1 with KOH and osmolarity adjusted to 320 mOsm with sucrose. The liquid junction potential was calculated to be 4.8 mV and was not corrected for. […] The current at 50 mV from each sweep was measured and plotted against time. Curves were fitted in GraphPad Prism to a one phase decay [Y= IF(X < X0, Y0, Plateau+(Y0-Plateau)*exp(-K*(X-X0))), where x = time, y = Y0 until X = X0 then decays down to plateau with one phase, K = rate constant]. τ values were calculated to determine the activation time constant.

[1] = biological target: Serotonin (5-Hydroxytryptamine) 5-HT2B (Homo sapiens, UniProt P41595); assay: Promiscuity screening panel, radiometric binding; conditions: read-out: % inhibition at 10 µM (n=2)
Experimental: (§2) C101248 was further profiled in a promiscuity screening panel, using radiometric binding assays, against a selection of 18 diverse targets at 10 μM (Supplementary Table 2).
(§3) Supplementary Table 2: Promiscuity screening panel data for C101248. Compound was screened at 10 µM, in duplicate, using radiometric binding assays

[2] = test system: GABAA, Flunitrazepam, Central; assay: Promiscuity screening panel, radiometric binding; conditions: Rat
Experimental: as §2, §3

Phosphodiesterase PDE3 = assay: Promiscuity screening panel, radiometric binding; conditions: Phosphodiesterase PDE3, Human
Experimental: as §2, §3

Histamine H1 = Histamine H1 (Homo sapiens, UniProt P35367); assay: Promiscuity screening panel, radiometric binding; conditions: read-out: % inhibition at 10 µM (n=2)
Experimental: as §2, §3

Calcium Channel CaV1.2 = Calcium Channel CaV1.2 (Homo sapiens, UniProt Q13936); assay: Promiscuity screening panel, radiometric binding; conditions: read-out: % inhibition at 10 µM (n=2)
Experimental: as §2, §3

Dopamine D1 = Dopamine D1 (Homo sapiens, UniProt P21728); assay: Promiscuity screening panel, radiometric binding; conditions: read-out: % inhibition at 10 µM (n=2)
Experimental: as §2, §3

[3] = test system: Adrenergic α1, Non-Selective; assay: Promiscuity screening panel, radiometric binding; conditions: Rat
Experimental: as §2, §3

Cannabinoid CB1 = Cannabinoid CB1 (Homo sapiens, UniProt P21554); assay: Promiscuity screening panel, radiometric binding; conditions: read-out: % inhibition at 10 µM (n=2)
Experimental: as §2, §3

CNS PK study in rats = assay type: in vivo; conditions: Sprague Dawley, rat, brain (unbound) / plasma (unbound), 10 or 30 mg/kg oral, 1, 2 or 4 h post dose, read-out: Kpu,u
Experimental: In CNS PK studies, rodents (C57BL/6 mice or Sprague Dawley rats) were administered C101248 by oral gavage at 10 or 30 mg/kg. At specified timepoints post dose (0.5, 1, 2 or 4 h), blood samples were collected and processed to plasma (centrifugation at 5000 rpm, 4 °C for 10 min). Immediately following blood withdrawal, cerebrospinal fluid (CSF) samples were collected from the cisterna magna, whole body perfusion was conducted, and brain samples were collected and weighed. Samples were stored frozen at −80 ± 10 °C until analysis. Plasma, CSF, and brain samples were analysed using a fit for purpose bioanalytical method (LC-MS/MS) against a calibration curve containing QC samples. Brain:plasma and CSF:plasma were calculated based on brain concentration/plasma concentration at the same timepoint. Unbound partition coefficient (Kpu,u) values were calculated based on unbound brain concentration/unbound plasma concentration at the same timepoint. Unbound concentrations were derived by adjusting plasma concentrations for the fraction unbound in plasma based on in vitro plasma protein binging (PPB) values and brain concentrations for the unbound fraction in brain tissue based on in vitro brain tissue binding (BTB) values.

Sequence of Cannabinoid CB1 (P21554 whole entry): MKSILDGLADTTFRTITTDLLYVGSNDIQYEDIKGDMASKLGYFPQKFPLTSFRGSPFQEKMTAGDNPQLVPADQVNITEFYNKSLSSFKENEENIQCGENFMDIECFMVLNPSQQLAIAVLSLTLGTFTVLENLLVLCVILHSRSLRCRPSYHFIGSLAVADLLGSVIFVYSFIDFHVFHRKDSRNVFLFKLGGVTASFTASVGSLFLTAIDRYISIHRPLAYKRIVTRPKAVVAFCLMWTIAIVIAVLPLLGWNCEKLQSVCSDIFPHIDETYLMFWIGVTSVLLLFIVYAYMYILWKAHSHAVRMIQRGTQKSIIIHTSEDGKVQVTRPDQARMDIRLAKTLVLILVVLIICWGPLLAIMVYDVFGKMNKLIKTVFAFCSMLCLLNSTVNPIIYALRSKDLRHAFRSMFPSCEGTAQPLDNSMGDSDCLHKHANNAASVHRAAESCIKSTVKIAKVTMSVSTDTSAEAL
Sequence of Serotonin (5-Hydroxytryptamine) 5-HT2B (P41595 whole entry): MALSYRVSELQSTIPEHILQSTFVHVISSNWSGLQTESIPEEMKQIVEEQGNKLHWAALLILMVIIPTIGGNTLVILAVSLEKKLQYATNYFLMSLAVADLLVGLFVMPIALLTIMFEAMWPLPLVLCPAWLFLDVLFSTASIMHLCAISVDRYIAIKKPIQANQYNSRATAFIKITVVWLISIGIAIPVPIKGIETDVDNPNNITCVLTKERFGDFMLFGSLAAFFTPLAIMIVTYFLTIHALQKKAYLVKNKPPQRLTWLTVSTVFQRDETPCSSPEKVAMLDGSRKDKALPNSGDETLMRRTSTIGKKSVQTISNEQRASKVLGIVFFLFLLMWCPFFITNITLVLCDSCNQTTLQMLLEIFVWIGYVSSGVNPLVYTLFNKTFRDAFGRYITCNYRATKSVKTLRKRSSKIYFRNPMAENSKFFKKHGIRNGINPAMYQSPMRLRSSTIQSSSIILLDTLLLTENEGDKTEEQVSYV
Sequence of ROCK-1 (h) (Q13464 whole entry): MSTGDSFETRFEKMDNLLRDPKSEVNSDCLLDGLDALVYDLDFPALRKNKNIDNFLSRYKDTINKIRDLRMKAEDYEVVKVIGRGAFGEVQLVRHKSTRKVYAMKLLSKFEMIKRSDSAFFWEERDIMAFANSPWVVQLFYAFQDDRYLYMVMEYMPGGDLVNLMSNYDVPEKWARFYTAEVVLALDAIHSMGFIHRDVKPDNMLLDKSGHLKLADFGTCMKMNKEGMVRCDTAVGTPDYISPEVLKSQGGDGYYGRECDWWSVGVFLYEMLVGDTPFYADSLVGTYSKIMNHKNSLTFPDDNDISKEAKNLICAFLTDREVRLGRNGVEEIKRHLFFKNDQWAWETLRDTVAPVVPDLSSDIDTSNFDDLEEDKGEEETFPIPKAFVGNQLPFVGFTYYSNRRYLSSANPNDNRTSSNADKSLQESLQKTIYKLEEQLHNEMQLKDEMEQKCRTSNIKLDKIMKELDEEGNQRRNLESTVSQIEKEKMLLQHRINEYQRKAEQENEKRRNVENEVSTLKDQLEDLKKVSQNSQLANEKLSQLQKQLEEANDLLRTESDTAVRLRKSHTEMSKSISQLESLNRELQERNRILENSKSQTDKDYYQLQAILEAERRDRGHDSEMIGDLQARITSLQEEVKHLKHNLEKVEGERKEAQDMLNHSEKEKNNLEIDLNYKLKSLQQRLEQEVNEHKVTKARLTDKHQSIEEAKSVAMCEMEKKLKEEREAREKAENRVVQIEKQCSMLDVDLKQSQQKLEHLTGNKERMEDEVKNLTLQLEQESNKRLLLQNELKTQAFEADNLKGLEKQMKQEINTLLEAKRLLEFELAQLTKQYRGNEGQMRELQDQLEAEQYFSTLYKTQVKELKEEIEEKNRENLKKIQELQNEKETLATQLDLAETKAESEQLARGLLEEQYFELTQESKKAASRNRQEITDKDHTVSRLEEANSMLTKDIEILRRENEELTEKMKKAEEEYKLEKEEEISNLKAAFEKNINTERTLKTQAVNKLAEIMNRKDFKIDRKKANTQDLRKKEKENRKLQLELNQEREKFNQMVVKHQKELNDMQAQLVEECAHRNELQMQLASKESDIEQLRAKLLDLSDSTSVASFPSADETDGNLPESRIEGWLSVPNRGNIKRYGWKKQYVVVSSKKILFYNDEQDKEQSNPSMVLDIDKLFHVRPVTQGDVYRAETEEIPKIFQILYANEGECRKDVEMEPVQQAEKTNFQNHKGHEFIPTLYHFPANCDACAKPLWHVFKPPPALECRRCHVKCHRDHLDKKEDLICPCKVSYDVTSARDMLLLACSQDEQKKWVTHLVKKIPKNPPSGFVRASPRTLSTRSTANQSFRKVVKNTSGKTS
Sequence of GSK3β (h) (P49841 whole entry): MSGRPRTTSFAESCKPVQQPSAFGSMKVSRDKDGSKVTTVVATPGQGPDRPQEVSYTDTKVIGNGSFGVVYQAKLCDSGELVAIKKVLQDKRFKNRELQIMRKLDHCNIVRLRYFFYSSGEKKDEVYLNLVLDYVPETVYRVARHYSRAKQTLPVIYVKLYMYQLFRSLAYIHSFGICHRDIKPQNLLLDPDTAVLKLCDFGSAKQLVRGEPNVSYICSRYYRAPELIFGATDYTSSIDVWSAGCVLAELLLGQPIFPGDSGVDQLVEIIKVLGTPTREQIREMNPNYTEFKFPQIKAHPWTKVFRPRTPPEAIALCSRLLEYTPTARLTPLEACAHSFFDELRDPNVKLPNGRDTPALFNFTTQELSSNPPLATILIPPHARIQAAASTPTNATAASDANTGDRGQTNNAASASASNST
Sequence of Histamine H1 (P35367 whole entry): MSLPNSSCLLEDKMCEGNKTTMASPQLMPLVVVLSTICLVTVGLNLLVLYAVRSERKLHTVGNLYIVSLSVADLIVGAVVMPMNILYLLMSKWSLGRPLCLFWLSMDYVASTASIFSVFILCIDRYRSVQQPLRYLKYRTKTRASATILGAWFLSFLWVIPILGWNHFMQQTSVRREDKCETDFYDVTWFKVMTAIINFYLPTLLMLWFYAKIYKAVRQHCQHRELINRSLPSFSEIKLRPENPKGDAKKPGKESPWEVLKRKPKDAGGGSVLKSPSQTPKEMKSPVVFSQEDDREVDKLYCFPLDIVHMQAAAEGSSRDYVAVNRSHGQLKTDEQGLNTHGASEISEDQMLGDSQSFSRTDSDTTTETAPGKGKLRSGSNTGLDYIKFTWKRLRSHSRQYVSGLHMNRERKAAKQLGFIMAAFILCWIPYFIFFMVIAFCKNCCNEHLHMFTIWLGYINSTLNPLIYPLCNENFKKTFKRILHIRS
Sequence of p70S6K (h) (P23443 whole entry): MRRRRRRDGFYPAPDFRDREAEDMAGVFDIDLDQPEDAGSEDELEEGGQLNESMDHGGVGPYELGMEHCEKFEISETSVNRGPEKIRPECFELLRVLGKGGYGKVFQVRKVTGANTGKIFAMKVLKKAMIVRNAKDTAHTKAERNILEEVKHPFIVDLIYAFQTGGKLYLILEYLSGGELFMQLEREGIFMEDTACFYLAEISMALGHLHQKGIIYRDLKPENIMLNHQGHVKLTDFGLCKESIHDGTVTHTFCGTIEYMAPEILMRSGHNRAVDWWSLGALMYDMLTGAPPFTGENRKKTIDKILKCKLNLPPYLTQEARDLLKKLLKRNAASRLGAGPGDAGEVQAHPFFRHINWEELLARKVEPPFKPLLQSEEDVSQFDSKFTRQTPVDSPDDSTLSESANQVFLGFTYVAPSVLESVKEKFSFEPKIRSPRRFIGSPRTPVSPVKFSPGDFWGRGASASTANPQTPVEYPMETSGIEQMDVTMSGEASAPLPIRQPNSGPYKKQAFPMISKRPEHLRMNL
Sequence of Dopamine D1 (P21728 whole entry): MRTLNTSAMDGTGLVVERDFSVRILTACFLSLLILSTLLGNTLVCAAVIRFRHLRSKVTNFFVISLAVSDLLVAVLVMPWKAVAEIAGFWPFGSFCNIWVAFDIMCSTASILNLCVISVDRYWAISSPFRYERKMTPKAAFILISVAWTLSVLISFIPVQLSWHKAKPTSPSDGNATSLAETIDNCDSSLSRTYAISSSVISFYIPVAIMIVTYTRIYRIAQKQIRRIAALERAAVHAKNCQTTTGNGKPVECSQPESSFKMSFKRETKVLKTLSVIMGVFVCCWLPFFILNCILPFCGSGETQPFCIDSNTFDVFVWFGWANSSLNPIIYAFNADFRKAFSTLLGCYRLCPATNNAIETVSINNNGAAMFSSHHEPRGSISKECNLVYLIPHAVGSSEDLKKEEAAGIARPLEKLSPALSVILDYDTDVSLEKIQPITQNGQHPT
Sequence of Lck (h) (P06239 whole entry): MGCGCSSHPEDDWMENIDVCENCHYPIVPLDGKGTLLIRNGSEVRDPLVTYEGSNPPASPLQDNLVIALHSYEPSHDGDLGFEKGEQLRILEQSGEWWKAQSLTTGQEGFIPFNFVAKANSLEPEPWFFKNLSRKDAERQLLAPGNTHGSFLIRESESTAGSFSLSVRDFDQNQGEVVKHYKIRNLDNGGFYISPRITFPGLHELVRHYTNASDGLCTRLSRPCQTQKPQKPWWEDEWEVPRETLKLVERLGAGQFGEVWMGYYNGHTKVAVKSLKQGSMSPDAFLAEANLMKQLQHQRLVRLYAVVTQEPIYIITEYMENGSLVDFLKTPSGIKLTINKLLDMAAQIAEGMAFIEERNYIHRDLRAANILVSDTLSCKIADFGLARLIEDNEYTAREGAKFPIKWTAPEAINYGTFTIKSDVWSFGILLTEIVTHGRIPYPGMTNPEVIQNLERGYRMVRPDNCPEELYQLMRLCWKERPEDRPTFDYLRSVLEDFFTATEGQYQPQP

IC50 (GSK3β (h)): > 10 µM
IC50 (ROCK-2 (h)): > 10 µM
IC50 (PKA (h)): > 10 µM
IC50 (Syk (h)): > 10 µM
IC50 (p70S6K (h)): > 10 µM
IC50 (Lck (h)): > 10 µM
IC50 (ROCK-1 (h)): > 10 µM
activation time constant (τ) (THIK-1; 0.5 μM): 217.4 ± 61.4 s
activation time constant (τ) (THIK-1; 5 μM): 83.4 ± 17.2 s
inhibition at 10 µM [1]: 24%
% inhibition at 10 µM (n=2) [2]: -9%
% inhibition at 10 µM (n=2) (Phosphodiesterase PDE3): 1%
inhibition at 10 µM (Histamine H1): 21%
inhibition at 10 µM (Dopamine D1): -1%
% inhibition at 10 µM (n=2) [3]: 12%
inhibition at 10 µM (Cannabinoid CB1): 22%
Kp (CNS PK study in rats): 0.55 to 0.95
SMILES: Nc1nonc1-c1nc2ccccc2n1Cc1ccncc1 [C101248]
inhibition at 10 µM (Calcium Channel CaV1.2): 12%
